According to patent US9534209B2, “Methods and tools for identification of RSK/MSK kinase inhibitors” (Aarhus Universitet, priority 2012, dated 2017):
Where a name gives a salt, the structure may show the parent alone.

What was measured:
[1] = target: T1, C-terminal kinase domain of murine RSK2 (Mus musculus, UniProt P18654); assay: X-ray co-crystal structure of RSK2 C-terminal kinase domain with DMF; type: binding; settings: 1.9 Å resolution X-ray crystal structure; RSK2 8 mg/ml with 5 mM DMF, 30 min at room temperature
T1 construct: His8 (N, cleaved yes); linker DYDIPTT (N, cleaved yes); TEV protease site ENLYFQG (only the final G remains after cleavage) (N, cleaved yes); made in house; host or cells: E. coli BL21 (DE3) Rosetta, RSK2-pET-22b
T1 sequence (P18654 with tags, fused parts or gaps): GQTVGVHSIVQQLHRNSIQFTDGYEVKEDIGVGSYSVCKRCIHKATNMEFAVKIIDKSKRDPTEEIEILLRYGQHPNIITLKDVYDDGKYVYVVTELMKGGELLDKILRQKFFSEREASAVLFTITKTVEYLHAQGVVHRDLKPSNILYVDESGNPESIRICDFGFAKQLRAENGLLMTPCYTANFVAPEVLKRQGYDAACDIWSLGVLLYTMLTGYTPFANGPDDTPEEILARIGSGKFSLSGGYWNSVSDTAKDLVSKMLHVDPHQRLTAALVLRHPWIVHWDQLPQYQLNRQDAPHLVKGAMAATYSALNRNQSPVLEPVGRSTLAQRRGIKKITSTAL
Text: A construct of the C-terminal kinase domain of murine Ribosomal S6 Kinase 2 (RSK2) (residues 400-740; SEQ ID NO. 2) including a N-terminal polyhistidine tag (His8), a linker (DYDIPTT) (SEQ ID NO: 21) and a Tobacco Etch Virus (TEV) protease site (ENLYFQG) (SEQ ID NO: 22) in the expressed kinase was designed and ordered from Genscript. The synthesised gene was subcloned into pET-22b (Novagen) by the vendor resulting in RSK2-pET-22b. BI21 (DE3) Rosetta was transformed with RSK2-pET-22b and plated on lysogeny broth (LB) agar plates supplemented with 50 μg/ml ampicillin (Amp) and 35 μg/ml Chloramphenicol (Cam). 5 colonies were used for inoculation of a 20 ml LB overnight culture supplemented with 100 μg/ml Amp and 35 μg/ml Cam. 2 liters of LB, supplemented with 100 μg/ml Amp and 35 μg/ml Cam, was inoculated with the overnight culture and grown at 37° C. Expression was induced with 0.1 mM isopropyl β-D-1-thiogalactopyranoside at an optical density of A600 nm=0.8 and the temperature was lowered to 20° C. for 3 h and further lowered to 12° C. for 20 hours. […] Protein concentration was evaluated by spectrophotometry (Nanodrop, Thermo Fisher Scientific) assuming εRSK2=44350 cm^−1 M^−1 and MRSK2=38.4 kDa. […] RSK2 purity was evaluated by SDS-PAGE using a 15% separation gel. […] The purification procedure resulted >95% pure and stable RSK2 evaluated by SDS-PAGE and mass spectrometry. […]

RSK2 = target: T2, RSK2 (Mus musculus, UniProt P18654, C599V); assay: Mutational study of RSK2 in EGF-stimulated HEK 293 cells, Western blot p-RSK2 (Ser386); type: cell-based; settings: 140 μM DMF pre-incubated 1 hour, 1 ng/ml EGF for 15 minutes
T2 construct: expressed in transfected cells; host or cells: HEK-293
T2 sequence (P18654 whole entry C599V): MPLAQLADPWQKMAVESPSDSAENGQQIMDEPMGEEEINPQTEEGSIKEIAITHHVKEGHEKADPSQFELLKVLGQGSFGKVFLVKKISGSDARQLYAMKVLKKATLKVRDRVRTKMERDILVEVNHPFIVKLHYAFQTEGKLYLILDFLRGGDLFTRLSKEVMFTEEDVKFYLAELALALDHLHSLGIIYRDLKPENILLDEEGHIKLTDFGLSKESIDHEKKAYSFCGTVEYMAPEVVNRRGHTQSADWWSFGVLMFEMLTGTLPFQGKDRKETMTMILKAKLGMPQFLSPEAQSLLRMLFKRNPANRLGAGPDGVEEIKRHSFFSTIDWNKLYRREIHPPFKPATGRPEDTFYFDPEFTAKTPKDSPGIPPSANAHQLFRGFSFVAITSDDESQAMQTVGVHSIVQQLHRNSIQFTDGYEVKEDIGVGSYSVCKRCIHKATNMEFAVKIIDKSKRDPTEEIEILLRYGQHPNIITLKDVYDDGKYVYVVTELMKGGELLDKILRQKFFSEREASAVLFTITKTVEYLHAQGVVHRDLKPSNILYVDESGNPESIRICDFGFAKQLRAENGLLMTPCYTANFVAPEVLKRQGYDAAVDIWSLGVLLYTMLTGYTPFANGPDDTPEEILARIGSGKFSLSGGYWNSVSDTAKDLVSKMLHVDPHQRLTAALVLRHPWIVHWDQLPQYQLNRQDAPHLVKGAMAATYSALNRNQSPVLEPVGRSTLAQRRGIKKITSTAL
Method: Human embryonic kidney cells (HEK-293) were cultured in tissue culture flasks (150 cm^2) to 60% confluence in Dulbecco's modified Eagle's medium (DMEM) (Gibco) supplemented with 50 units/ml penicillin G (Gibco), […] streptomycin (Invitrogen), 5 μg/ml gentamycin (Gibco), 10% (v/v) foetal bovine serum (FBS) (Gibco) and 2.5% HEPES (Gibco). Cells were trypsinated and seeded in 10 cm petri dishes at a density of 6.5×10^6 cells per dish in 10 ml DMEM supplemented with 50 μg/ml bovine pituitary growth hormone (BGH) (Gibco), antibiotics (penicillin G, streptomycin, gentamycin) and 2% FBS and 2.5% HEPES and were incubated for 2 days. The culture medium was changed to 7 ml DMEM supplemented with 2.5% Hepes for 16 hours. Transfection with plasmids was performed as previously described Jensen et al. 1999^57 with modifications. HEK-293 cells were transfected using 3.5 μg plasmid DNA/dish dissolved in 250 μl Optimem (Invitrogen) and 30 μl Lipofectamine 2000 (Invitrogen) dissolved in 250 μl Optimem added together for 20 minutes before transferred to cells. […]
Dimethylfumarate (DMF) (Sigma-Aldrich) was dissolved in dimethylsulfoxide (DMSO) (Merck) resulting in a 70 mM stock solution and diluted to 7 mM (4% v/v DMSO) in culture medium. […] Densitometry analysis of the band intensity was performed on a flatbed scanner (Epson PERFECTION V750PRO) and quantitated by Jelly Quant.

human MSK1 = target: T3, human MSK1 (Homo sapiens, UniProt O75582, C603V); assay: Mutational study of MSK1 in EGF-stimulated HEK 293 cells, Western blot p-MSK1 (Ser376); type: cell-based; settings: 140 μM DMF pre-incubated 1 hour, 1 ng/ml EGF for 30 minutes
T3 construct: expressed in transfected cells; host or cells: HEK-293, vector pEBG2T
T3 sequence (O75582 whole entry C603V): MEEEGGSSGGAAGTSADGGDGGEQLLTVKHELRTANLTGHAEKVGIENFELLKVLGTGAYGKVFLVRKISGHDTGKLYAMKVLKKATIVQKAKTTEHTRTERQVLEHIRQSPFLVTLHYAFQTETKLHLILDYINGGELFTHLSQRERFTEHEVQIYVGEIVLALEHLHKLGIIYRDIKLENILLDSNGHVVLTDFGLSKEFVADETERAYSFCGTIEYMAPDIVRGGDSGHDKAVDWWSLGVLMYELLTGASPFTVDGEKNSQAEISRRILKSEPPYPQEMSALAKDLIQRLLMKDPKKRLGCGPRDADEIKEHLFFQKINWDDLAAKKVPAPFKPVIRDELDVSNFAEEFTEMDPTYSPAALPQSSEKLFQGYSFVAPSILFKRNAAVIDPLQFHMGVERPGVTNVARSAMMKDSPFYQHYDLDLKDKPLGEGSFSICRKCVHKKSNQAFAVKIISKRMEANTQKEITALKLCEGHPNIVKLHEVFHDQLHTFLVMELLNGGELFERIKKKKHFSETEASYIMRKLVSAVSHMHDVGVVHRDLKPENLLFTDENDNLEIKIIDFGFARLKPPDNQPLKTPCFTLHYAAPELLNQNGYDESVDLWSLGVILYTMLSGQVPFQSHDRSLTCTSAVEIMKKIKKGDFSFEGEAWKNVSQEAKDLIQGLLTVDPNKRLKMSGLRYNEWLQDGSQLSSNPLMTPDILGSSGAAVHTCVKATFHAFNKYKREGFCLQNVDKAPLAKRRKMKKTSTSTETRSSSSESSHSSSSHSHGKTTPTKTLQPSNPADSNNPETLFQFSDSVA
Method: Mutational analysis of MSK1 was performed in a mammalian expression vector (pEBG2T) in which a glutathione S-transferase (GST) domain and FLAG-tag (Asp-Tyr-Lys-Asp-Asp-Asp-Asp-Lys) was fused to the N-terminus of human MSK1 (GST-FLAG-MSK1)^6. The positions corresponding to C436, T579 and C599 in murine RSK2 (SEQ ID NO: 1) of human MSK1 (C440, T583 and C603) were mutated to Val, Ser and Thr (For T583 only an Ala mutation was performed) using the QuikChange Lightning Kit (Agilent Technologies).
Human embryonic kidney cells (HEK-293) were cultured in tissue culture flasks (150 cm^2) to 60% confluence in Dulbecco's modified Eagle's medium (DMEM) (Gibco) supplemented with 50 units/ml penicillin G (Gibco), […] streptomycin (Invitrogen), 5 μg/ml gentamycin (Gibco), 10% (v/v) foetal bovine serum (FBS) (Gibco) and 2.5% HEPES (Gibco). […]
Dimethylfumarate (DMF) (Sigma-Aldrich) was dissolved in dimethylsulfoxide (DMSO) (Merck) resulting in a 70 mM stock solution and diluted to 7 mM (4% v/v DMSO) in culture medium. […] Densitometry analysis of the band intensity was performed on a flatbed scanner (Epson PERFECTION V750PRO) and quantitated by Jelly Quant. […]

RSK2 cysteine 599 (C599) = target: T4, RSK2 cysteine 599 (C599) (Mus musculus, UniProt P18654); assay: Mass spectrometric analysis of DMF modification of RSK2; type: binding, murine; settings: chymotrypsin digest, MALDI TOF/TOF
T4 construct: His8 (N, cleaved yes); linker DYDIPTT (N, cleaved yes); TEV protease site ENLYFQG (only the final G remains after cleavage) (N, cleaved yes); made in house; host or cells: E. coli BL21 (DE3) Rosetta, RSK2-pET-22b
T4 sequence (P18654 with tags, fused parts or gaps): as the sequence (P18654 with tags, fused parts or gaps) above
Text: A construct of the C-terminal kinase domain of murine Ribosomal S6 Kinase 2 (RSK2) (residues 400-740; SEQ ID NO. 2) including a N-terminal polyhistidine tag (His8), a linker (DYDIPTT) (SEQ ID NO: 21) and a Tobacco Etch Virus (TEV) protease site (ENLYFQG) (SEQ ID NO: 22) in the expressed kinase was designed and ordered from Genscript. The synthesised gene was subcloned into pET-22b (Novagen) by the vendor resulting in RSK2-pET-22b. BI21 (DE3) Rosetta was transformed with RSK2-pET-22b and plated on lysogeny broth (LB) agar plates supplemented with 50 μg/ml ampicillin (Amp) and 35 μg/ml Chloramphenicol (Cam). 5 colonies were used for inoculation of a 20 ml LB overnight culture supplemented with 100 μg/ml Amp and 35 μg/ml Cam. […] Protein concentration was evaluated by spectrophotometry (Nanodrop, Thermo Fisher Scientific) assuming εRSK2=44350 cm^−1 M^−1 and MRSK2=38.4 kDa. […] RSK2 purity was evaluated by SDS-PAGE using a 15% separation gel. […] The purification procedure resulted >95% pure and stable RSK2 evaluated by SDS-PAGE and mass spectrometry.
RSK2 samples were reduced and alkylated with iodoacetamide, i.e. carbamidomethylated, and subsequently digested with chymotrypsin. […] The peptide mixture was analyzed in positive reflector mode for accurate peptide mass determination. […]

Q: With `COC(=O)/C=C/C(=O)OC` [DMF, dimethyl fumarate] as the molecule, how does the “binding of DMF to RSK2 in co-crystal structure” value [1] read?
A: The value was “binding of one DMF molecule to RSK2”.

Q: What about the “effect of DMF on phosphorylation of S386 of RSK2 mutant C599 to valine” value (RSK2) of the same molecule?
A: Its value is “no decrease in the phosphorylation of S386 was observed”.

Q: What about the “effect of DMF on phosphorylation of S376 of MSK1 mutant C603 to valine” value (human MSK1) of the same molecule?
A: The value was “no decrease in the phosphorylation of S376 was observed”.

Q: What about the “covalent modification of C599 of RSK2 by DMF” value (RSK2 cysteine 599 (C599)) of the same molecule?
A: Its value is “Covalent modification of C599 was identified”.
